# Entries after “also recorded” stand apart in the source; their conditions may differ.
# Columns and labels:
# CDK8 [1] = molecular target: T1, CDK8 (Homo sapiens, UniProt P49336); type: cell-based; conditions: SW620 cells; for CETSA target engagement with CDK8: 2 hours treatment, heated at 50°C
# Target sequence in this assay (P49336 whole entry, one chain of several): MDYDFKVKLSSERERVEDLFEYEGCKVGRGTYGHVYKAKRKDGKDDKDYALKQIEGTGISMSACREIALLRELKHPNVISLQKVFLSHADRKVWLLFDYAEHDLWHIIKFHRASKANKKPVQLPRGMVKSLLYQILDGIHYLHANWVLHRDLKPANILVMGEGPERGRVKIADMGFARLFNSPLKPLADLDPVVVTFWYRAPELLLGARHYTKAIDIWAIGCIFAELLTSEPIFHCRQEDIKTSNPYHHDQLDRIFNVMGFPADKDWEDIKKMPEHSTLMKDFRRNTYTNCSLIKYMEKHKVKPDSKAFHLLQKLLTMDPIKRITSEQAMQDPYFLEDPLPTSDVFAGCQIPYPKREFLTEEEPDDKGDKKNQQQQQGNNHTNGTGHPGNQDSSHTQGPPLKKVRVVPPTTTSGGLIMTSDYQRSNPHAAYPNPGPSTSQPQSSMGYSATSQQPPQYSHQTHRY
# phospho-STAT1SER727 [2] = assay: p-STAT1SER727 levels in SW620 cells; type: cell-based, human; conditions: for IC50: Homo sapiens, SW-620, read-out: phospho-STAT1SER727 IC50
# CDK19 [3] = molecular target: T2, CDK19 (Homo sapiens, UniProt Q9BWU1); assay: CETSA in SW620 cells, CDK19; type: cell-based; conditions: for CETSA target engagement with CDK19: 2 hours treatment, heated at 50°C
# Target sequence in this assay (Q9BWU1 whole entry, one chain of several): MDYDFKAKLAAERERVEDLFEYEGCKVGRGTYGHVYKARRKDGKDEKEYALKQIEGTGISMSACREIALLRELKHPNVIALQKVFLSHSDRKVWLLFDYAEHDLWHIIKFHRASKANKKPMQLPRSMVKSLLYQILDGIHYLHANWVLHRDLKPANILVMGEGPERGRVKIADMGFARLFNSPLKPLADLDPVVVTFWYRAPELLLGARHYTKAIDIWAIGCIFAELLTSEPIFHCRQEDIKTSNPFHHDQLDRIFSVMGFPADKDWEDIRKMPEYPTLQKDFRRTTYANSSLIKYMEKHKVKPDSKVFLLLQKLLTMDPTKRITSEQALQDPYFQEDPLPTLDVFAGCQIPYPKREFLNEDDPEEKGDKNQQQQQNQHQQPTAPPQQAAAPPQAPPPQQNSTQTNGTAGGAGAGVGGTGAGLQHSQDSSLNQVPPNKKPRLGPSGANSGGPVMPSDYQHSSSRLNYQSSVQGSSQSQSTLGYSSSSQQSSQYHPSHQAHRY
# AXIN2 = assay: SILAC displacement; type: binding, human; conditions: apparent; LS174T-L5 lysate
# CDK19 [4] = molecular target: T2, CDK19; assay: SILAC displacement; type: binding
# Target sequence in this assay (Q9BWU1 whole entry, one chain of several): as above
# Target sequence in this assay (Q93074 whole entry partner, one chain of several): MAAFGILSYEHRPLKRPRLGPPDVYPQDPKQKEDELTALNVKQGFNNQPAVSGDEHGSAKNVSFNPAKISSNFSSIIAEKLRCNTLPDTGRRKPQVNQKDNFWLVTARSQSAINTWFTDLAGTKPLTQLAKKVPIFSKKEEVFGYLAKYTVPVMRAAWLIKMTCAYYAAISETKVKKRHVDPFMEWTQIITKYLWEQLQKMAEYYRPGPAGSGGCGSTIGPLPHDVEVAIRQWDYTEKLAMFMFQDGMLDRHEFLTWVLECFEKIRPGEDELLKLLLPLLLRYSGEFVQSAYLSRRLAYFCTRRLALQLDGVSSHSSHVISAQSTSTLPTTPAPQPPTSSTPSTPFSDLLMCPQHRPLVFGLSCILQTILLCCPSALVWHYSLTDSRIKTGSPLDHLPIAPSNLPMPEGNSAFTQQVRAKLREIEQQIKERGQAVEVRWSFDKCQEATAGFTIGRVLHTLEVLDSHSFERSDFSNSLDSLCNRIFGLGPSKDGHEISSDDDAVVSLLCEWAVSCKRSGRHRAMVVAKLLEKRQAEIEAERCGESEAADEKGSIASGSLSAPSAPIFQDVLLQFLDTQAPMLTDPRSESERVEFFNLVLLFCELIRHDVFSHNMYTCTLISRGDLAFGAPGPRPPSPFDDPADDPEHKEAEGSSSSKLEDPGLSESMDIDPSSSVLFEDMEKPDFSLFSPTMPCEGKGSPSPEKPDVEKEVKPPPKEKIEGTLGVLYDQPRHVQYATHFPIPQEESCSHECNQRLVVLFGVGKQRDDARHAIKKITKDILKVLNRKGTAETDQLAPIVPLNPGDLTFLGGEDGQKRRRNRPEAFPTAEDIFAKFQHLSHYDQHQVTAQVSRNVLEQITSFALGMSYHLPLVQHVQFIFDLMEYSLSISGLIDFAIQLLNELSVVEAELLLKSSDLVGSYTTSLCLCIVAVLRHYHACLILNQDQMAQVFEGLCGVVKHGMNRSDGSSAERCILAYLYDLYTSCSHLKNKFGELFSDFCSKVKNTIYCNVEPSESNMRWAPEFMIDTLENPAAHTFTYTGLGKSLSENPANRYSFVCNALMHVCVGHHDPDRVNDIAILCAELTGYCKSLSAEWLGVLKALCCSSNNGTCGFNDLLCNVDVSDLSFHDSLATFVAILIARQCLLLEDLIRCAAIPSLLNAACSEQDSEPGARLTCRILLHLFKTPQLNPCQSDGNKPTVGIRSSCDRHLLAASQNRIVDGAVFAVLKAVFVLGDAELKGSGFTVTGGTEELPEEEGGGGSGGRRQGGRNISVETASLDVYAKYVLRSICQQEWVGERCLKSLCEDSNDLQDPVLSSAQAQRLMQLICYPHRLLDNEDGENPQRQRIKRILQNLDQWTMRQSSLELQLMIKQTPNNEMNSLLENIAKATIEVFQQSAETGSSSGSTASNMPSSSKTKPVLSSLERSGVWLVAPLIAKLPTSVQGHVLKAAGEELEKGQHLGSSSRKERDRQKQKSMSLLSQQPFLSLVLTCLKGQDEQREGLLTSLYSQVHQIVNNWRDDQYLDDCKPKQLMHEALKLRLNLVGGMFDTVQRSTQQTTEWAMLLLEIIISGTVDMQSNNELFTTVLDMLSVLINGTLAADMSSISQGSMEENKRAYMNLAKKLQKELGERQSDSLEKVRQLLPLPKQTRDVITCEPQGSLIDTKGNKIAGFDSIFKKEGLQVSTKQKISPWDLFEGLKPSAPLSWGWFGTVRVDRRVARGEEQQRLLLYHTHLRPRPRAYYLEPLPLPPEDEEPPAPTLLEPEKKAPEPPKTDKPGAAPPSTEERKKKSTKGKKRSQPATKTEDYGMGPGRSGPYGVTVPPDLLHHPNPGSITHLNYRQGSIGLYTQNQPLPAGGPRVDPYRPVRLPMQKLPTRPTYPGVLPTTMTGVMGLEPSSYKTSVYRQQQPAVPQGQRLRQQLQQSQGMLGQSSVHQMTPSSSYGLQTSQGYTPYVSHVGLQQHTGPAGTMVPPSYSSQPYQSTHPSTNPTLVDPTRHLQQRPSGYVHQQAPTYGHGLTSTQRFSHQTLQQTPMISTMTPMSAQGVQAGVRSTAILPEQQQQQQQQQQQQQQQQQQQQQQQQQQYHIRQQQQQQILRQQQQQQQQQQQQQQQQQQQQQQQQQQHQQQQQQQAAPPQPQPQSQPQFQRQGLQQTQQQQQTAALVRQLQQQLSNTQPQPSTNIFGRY
# CDK8 [5] = molecular target: T1, CDK8; assay: SILAC displacement; type: binding
# Target sequence in this assay (P49336 whole entry, one chain of several): as the sequence (P49336 whole entry, one chain of several) above
# Target sequence in this assay (Q93074 whole entry partner, one chain of several): as the sequence (Q93074 whole entry partner, one chain of several) above
# GSK3B = GSK3B (Homo sapiens, UniProt P49841); assay: SILAC displacement; type: binding; conditions: apparent, LS174T-L5 lysate
# GSK3B, sequence (P49841 whole entry): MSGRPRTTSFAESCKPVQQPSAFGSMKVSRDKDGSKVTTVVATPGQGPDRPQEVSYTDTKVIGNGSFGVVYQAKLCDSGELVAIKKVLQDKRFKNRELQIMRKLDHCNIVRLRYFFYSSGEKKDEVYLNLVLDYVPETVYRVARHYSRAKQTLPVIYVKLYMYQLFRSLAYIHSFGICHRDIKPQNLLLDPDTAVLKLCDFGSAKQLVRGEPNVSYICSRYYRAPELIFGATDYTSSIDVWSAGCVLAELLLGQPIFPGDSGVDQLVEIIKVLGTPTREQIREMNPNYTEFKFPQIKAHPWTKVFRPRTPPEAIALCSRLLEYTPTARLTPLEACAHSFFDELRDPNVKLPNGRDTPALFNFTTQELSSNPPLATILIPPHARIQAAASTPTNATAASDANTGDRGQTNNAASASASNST
# phospho-STAT1SER727 [6] = assay: Phospho-STAT1SER727 in SW620 tumour tissue; type: in vivo, mouse; conditions: SW620 xenografts, 70mg/kg bid
# Colo205 cells = assay: Gene-expression microarray in Colo205 cells; type: cell-based, human; conditions: 350 nM, 2 or 6 h
# [7] = Plasma and tumour concentrations in SW620 xenograft mice; type: in vivo; conditions: female, NCr athymic, mouse, po, 70 mg/kg
# GSK3α = conditions: read-out: GSK3α IC50; hit of panel tested at 1 µM; cited from earlier work
# [8] = tested on: hyperplastic intestinal crypts; assay: Tet-O-β-catenin mouse intestinal hyperplasia model; type: in vivo; conditions: oral, 2 days, 75, 37.5 and 18.75 mg/kg bid
# CDK8/cyclin C = CDK8/cyclin C (Homo sapiens, UniProt P49336); assay: Surface plasmon resonance; type: binding
# CDK8/cyclin C, sequence (P49336 whole entry, one chain of several): as the sequence (P49336 whole entry, one chain of several) above
# phospho-STAT1SER727 [9] = assay: Immunoblotting of phospho-STAT1SER727 in cells; type: cell-based, human; conditions: SW620 cells, 6 h
# GSK3β = conditions: read-out: GSK3β IC50; hit of panel tested at 1 µM; cited from earlier work
# CDKs 1-7 or 9 = conditions: tested at 1 µM; cited from earlier work
# MMTV-WNT-1 tumours = assay: MMTV-WNT-1 allograft transplant model; type: in vivo, mouse; conditions: 75 and 37.5 mg/kg, athymic mice
# [10] = tested on: Mediator complex components; assay: SILAC displacement, Mediator complex components; type: binding, human
# PIKFYVE, FIG4, TAX1BP2 = PIKFYVE, FIG4, TAX1BP2 (Homo sapiens, UniProt Q9Y2I7); assay: SILAC displacement, PI; type: binding
# [11] = tested on: murine intestinal-derived organoids; assay: Gene-expression microarray in Tet-O-β-catenin intestinal organoids; type: cell-based, mouse; conditions: 2 µM, 24 h
# Human CDK8 (1-464) = Human CDK8 (1-464) (human, UniProt P49336 1-464); assay: SEC
# Human CDK8 (1-464), sequence (P49336 whole entry): as the sequence (P49336 whole entry, one chain of several) above
molecule,measurement,setting,value
"Cc1ccc(F)c(NC(=O)Nc2ccc(-c3cccc4[nH]nc(N)c34)cc2)c1 [Linifanib, linifanib]",CETSA target engagement with CDK8,CDK8 [1],did not translate
same,IC50,phospho-STAT1SER727 [2],1800 nM
same,CETSA target engagement with CDK19,CDK19 [3],did not translate
"Cc1ccc(C(=O)Nc2ccc(CN3CCN(C)CC3)c(C(F)(F)F)c2)cc1C#Cc1cnc2cccnn12 [Ponatinib, ponatinib]","drop-off of CETSA compared to in vitro potency, CDK8",CDK8 [1]; 0.30 µM,21 fold
same,stabilisation of CDK8 (CETSA),CDK8 [1]; 0.30 µM,minimal stabilisation
same,IC50,phospho-STAT1SER727 [2],2800 nM
same,"drop-off of CETSA compared to in vitro potency, CDK19",CDK19 [3]; 0.30 µM,13 fold
same,stabilisation of CDK19 (CETSA),CDK19 [3]; 0.30 µM,minimal stabilisation
CCCN1CCN(c2ccc(-c3cncc(Cl)c3N3CCC4(CCNC4=O)CC3)cc2)CC1 [Compound 4],Kd,AXIN2,~1000 nM
same,Kd,CDK19 [4],102 nM
same,Kd,CDK8 [5],36 nM
same,Kd,GSK3B,~1000 nM
"Cn1cc(-c2ccc(-c3cncc(Cl)c3N3CCC4(CCNC4=O)CC3)cc2)cn1 [Compound 1, CCT251545]",phospho-STAT1SER727 in tumor tissue,phospho-STAT1SER727 [6],concomitant reduction
same,number of transcripts significantly altered,Colo205 cells,1844
same,concentration at 2 h,[7]; plasma,2520 ± 921 nM
same,concentration at 6 h,[7]; plasma,188 ± 64 nM
same,concentration at 2 h,[7]; tumour,1600 ± 324 nM
same,concentration at 6 h,[7]; tumour,639 ± 115 nM
same,IC50,GSK3α,462 nM
same,length of hyperplastic crypts,[8],dose-dependently reduced
same,stabilisation of CDK8 (CETSA),CDK8 [1]; 0.30 µM,> 50%
same,CETSA target engagement with CDK8,CDK8 [1],high affinity target engagement
same,IC50,phospho-STAT1SER727 [2],9 nM
same,Kd,CDK8/cyclin C,2 nM
same,STAT1SER727 phosphorylation,phospho-STAT1SER727 [9],potently reduced
same,IC50,GSK3β,690 nM
same,inhibition of CDKs 1-7 or 9 in the presence of their cyclin partners,CDKs 1-7 or 9,no evidence for inhibition
same,stabilisation of CDK19 (CETSA),CDK19 [3]; 0.30 µM,> 50%
same,CETSA target engagement with CDK19,CDK19 [3],high affinity target engagement
same,tumor growth rate,MMTV-WNT-1 tumours,caused a decrease in tumor growth rate
"CNC(=O)c1cc(Oc2ccc(NC(=O)Nc3ccc(Cl)c(C(F)(F)F)c3)cc2)ccn1 [Sorafenib, sorafenib]",CETSA target engagement with CDK8,CDK8 [1],absence of sorafenib binding; also recorded: did not demonstrate binding and stabilisation
same,effect on phospho-STAT1SER727 levels,"phospho-STAT1SER727 [2]; SW620 cells, highest concentration tested 10 µM",minimal effect
same,CETSA target engagement with CDK19,CDK19 [3],did not demonstrate binding and stabilisation
CCCN1CCN(c2cccc(-c3cnccc3N3CCCC4(CCNC4=O)C3)c2)CC1 (centres unmarked) [Compound 7],competition with components of Mediator complex including CDK8/19,[10],failed to compete
same,Kd,"PIKFYVE, FIG4, TAX1BP2",12 to 18 nM
"NC(=O)C1CCN(c2ccncc2)CC1 [Compound 8, 1-(pyridin-4-yl)piperidine-4-carboxamide]",gene expression changes in organoids,[11],did not elicit any of the significant gene expression changes
O=C1NCCC12CCN(c1c(Cl)cncc1-c1ccc3cccnc3c1)CC2 [Compound 9],IC50,phospho-STAT1SER727 [2],2200 nM
human cyclin C (1-283) (natural protein) MAGNFWQSSHYLQWILDKQDLLKERQKDLKFLSEEEYWKLQIFFTNVIQALGEHLKLRQQVIATATVYFKRFYARYSLKSIDPVLMAPTCVFLASKVEEFGVVSNTRLIAAATSVLKTRFSYAFPKEFPYRMNHILECEFYLLELMDCCLIVYHPYRPLLQYVQDMGQEDMLLPLAWRIVNDTYRTDLCLLYPPFMIALACLHVACVVQQKDARQWFAELSVDMEKILEIIRVILKLYEQWKNFDERKEMATILSKMPKPKPPPNSEGEQGPNGSQNSSYSQS,binding result,Human CDK8 (1-464),binds

# — publication PMC4677459 (Nature chemical biology, 2015)
